Reference: PMC11467737, “Osteocalcin binds to a GPRC6A Venus fly trap allosteric site to positively modulate GPRC6A signaling” (FASEB BioAdvances, 2024)
Changes are numbered by the printed parent chain. Bridge positions count the residues as written; N and C are the ends. Ends that are not written are not given here.

Assays:
Type in all cases: cell-based
K352E hGPRC6A = molecular target: T1, K352E hGPRC6A (Homo sapiens, UniProt Q5T6X5, K352E); assay: ERK activation in HEK-293 cells transfected with K352E hGPRC6A; conditions: K352E mutant; for ERK activation by Ocn small fragments: fragment at 20 nM, Figure 6D
T1 construct: expressed in transfected cells; host or cells: HEK-293, pcDNA3
T1 sequence (Q5T6X5 19-926 K352E): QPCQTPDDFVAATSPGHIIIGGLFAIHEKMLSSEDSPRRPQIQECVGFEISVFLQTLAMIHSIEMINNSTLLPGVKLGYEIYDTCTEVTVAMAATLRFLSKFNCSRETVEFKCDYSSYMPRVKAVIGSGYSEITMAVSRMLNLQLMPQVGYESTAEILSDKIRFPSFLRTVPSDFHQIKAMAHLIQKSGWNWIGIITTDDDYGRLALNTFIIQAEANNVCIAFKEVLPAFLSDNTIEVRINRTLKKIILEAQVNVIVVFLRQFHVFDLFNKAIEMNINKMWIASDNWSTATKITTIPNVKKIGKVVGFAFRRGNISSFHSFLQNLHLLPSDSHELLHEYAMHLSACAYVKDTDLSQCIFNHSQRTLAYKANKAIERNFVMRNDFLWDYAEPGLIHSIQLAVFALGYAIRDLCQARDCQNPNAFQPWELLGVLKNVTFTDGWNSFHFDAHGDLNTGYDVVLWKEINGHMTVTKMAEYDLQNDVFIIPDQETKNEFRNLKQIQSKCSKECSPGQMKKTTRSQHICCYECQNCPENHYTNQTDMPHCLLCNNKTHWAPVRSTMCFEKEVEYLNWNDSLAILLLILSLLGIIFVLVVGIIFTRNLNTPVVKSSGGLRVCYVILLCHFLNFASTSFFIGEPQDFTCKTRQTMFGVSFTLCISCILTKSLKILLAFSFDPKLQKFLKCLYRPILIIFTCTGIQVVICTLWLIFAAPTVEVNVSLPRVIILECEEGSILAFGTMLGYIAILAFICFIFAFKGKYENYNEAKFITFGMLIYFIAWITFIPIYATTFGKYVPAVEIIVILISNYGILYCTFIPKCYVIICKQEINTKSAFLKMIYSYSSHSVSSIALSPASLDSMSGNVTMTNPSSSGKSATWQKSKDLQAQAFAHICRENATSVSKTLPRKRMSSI
Experimental: (§1) All culture reagents were from Invitrogen (Waltham, MA, USA). Human embryonic kidney HEK‐293 cells were obtained from American Type Culture Collection and cultured in DMEM medium supplemented with 10% fetal bovine serum and 1% Penicillin/Streptomycin (P/S). Briefly, HEK‐293 cells transfected with/without human GPRC6A isoforms cDNA plasmids were starved by overnight incubation in serum‐free DMEM/F12 containing 0.1% bovine serum albumin (BSA) and stimulated with various ligands at different doses. ERK activation was assessed 20 min after treatment by using ERK1/2 (phospho‐T203/Y204) ELISA Kit (Invitrogen; Waltham, MA, USA) corrected for the amount of total ERK using ERK1/2 (Total) ELISA Kit (Invitrogen; Waltham, MA, USA) to measure ERK levels.
(§2) In‐vitro mutagenesis by PCR‐mediated recombination QuikChange II XL Site‐Directed Mutagenesis Kit (Agilent) was performed using the cDNA of human GPRC6A cloned in the vector pcDNA3 (Invitrogen) as a template. The primer sets are as follows. K352E.sen: […]; K352E.antisen: […]; H355P.sen: […]; H355P.antisen: […]; K352E/H355P.sen: […]; and K352E/H355P.antisen: […]. All mutants were confirmed by sequencing.

H355P hGPRC6A [1] = molecular target: T2, H355P hGPRC6A (Homo sapiens, UniProt Q5T6X5, H355P); assay: ERK activation in HEK-293 cells transfected with H355P hGPRC6A; conditions: H355P mutant; for ERK activation by Ocn small fragments: fragment at 20 nM, Figure 6D
T2 construct: expressed in transfected cells; host or cells: HEK-293, pcDNA3
T2 sequence (Q5T6X5 19-926 H355P): T1 sequence (Q5T6X5 19-926 K352E) with E334K, H337P
Experimental: as §1, §2

H355P hGPRC6A [2] = molecular target: T2, H355P hGPRC6A; assay: cAMP accumulation in HEK-293 cells transfected with H355P hGPRC6A; conditions: H355P mutant; for cAMP accumulation by Ocn small fragments: fragment at 20 nM, Figure 6C
Experimental: HEK‐293 transfected with human GPRC6A isoform cDNA plasmids cells (10^5 cells/well)[30] were cultured in 24‐well plates in DMEM supplemented with 10% fetal bovine serum and 1% penicillin/streptomycin (100 U/mL of penicillin and 100 μg/mL of streptomycin) for 48 h followed by 4 h incubation in DMEM/F12 containing 0.1% BSA and 0.5 mM IBMX to achieve quiescence and preventing cAMP degradation. Quiescent cells were treated with vehicle control, various ligands at concentration as indicated for 40 min at 37°C. Then, the reaction was stopped, and the cells lysed with 0.5 mL 0.1 N HCl. cAMP levels were measured by using Cyclic AMP EIA kit (Cayman Chemical; Ann Arbor, MA, USA) following the manufacture's protocol.
as §2

ERK phosphorylation, dose response of full-length Ocn, versus wild-type receptor (K352E hGPRC6A; Figure 6B) | ERK phosphorylation, dose response of full-length Ocn, versus wild-type receptor (H355P hGPRC6A [1]; Figure 6B) | cAMP accumulation, dose response of full-length Ocn, versus wild-type receptor (H355P hGPRC6A [2]; Figure 6A) | ERK activation by Ocn small fragments (K352E hGPRC6A) | ERK activation by Ocn small fragments (H355P hGPRC6A [1]) | cAMP accumulation by Ocn small fragments (H355P hGPRC6A [2]) | Substance
significantly decreased | significantly decreased | significantly decreased |  |  |  | osteocalcin (YLYQWLGAPVPYPDPLEPRREVCELNPDCDELADHIGFQEAYRRFYGPV; not fully specified; ends and bridges not checked; UniProt P02818 52-100, looked up) [Ocn 1–49, full human Ocn (49 aa) synthesized by BioMatik; methods also describe decarboxylated Ocn purified from bovine tibial bone, reference compound]
 |  |  | significantly attenuated | significantly attenuated | significantly attenuated | RFYGPV [Ocn 44–49, synthesized human Ocn C‐terminal hexapeptide]
 |  |  | no response | no response | no response | REVCELNPDC (disulfide 4-10 (inferred)) [Ocn 20–29, synthesized human Ocn decapeptide fragment located in the middle of the protein]
